ChEMBL document CHEMBL5143601, “Rationalizing the binding and α subtype selectivity of synthesized imidazodiazepines and benzodiazepines at GABAA receptors by using molecular docking studies” (Bioorg Med Chem Lett, 2022)

Legend:
[1] = target: T1, GABA A receptor alpha-3/beta-2/gamma-2 (Homo sapiens, UniProt P18507+P34903+P47870); assay: Displacement of [3H]flunitrazepam from human recombinant alpha3beta2gamma2 GABAA receptor expressed in HEK cell membrane by competitive radioligand binding assay; assay type: cell membranes
T1 sequence (P47870 whole entry): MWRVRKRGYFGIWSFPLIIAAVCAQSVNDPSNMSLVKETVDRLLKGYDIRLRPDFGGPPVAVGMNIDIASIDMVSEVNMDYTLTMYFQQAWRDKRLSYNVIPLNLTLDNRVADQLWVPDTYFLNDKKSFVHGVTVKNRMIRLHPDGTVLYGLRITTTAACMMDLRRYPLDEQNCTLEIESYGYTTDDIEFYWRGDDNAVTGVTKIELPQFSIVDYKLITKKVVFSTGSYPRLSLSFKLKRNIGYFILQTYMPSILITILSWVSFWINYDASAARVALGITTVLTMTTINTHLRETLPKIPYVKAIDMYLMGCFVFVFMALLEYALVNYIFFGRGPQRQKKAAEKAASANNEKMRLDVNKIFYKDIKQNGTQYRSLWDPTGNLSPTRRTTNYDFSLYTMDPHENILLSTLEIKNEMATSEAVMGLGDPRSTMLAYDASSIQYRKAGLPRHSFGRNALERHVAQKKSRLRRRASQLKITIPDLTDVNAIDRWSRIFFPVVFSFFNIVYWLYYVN
T1 sequence (P18507 whole entry): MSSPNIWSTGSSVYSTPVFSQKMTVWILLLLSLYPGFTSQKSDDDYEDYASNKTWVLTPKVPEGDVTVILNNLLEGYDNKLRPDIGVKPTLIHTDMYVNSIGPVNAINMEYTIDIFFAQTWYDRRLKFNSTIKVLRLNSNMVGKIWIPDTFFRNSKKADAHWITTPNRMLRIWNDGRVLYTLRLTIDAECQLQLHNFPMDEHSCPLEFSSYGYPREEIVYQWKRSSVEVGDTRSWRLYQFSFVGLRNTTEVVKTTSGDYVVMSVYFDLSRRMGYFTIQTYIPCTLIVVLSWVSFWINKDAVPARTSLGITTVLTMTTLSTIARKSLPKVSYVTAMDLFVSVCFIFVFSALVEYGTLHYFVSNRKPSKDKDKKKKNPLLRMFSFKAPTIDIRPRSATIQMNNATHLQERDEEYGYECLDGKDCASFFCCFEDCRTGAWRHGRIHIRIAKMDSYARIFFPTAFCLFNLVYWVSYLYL
T1 sequence (P34903 whole entry): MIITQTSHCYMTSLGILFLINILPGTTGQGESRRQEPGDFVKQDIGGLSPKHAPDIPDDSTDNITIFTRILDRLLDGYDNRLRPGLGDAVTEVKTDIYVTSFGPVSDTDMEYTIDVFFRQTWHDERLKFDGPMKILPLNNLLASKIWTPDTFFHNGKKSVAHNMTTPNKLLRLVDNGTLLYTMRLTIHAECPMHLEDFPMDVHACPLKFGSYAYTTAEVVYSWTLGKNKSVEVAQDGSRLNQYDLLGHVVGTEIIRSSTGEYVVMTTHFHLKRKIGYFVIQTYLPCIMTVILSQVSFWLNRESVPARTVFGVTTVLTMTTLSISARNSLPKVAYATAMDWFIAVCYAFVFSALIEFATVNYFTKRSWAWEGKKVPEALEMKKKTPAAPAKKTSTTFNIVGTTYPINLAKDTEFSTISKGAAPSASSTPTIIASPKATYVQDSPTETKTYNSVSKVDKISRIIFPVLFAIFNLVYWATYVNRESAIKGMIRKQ

[2] = target: T2, GABA-A receptor; alpha-1/beta-2/gamma-2 (Homo sapiens, UniProt P14867+P18507+P47870); assay: Displacement of [3H]flunitrazepam from human recombinant alpha1beta2gamma2 GABAA receptor expressed in HEK cell membrane by competitive radioligand binding assay; assay type: cell membranes
T2 sequence (P14867 whole entry): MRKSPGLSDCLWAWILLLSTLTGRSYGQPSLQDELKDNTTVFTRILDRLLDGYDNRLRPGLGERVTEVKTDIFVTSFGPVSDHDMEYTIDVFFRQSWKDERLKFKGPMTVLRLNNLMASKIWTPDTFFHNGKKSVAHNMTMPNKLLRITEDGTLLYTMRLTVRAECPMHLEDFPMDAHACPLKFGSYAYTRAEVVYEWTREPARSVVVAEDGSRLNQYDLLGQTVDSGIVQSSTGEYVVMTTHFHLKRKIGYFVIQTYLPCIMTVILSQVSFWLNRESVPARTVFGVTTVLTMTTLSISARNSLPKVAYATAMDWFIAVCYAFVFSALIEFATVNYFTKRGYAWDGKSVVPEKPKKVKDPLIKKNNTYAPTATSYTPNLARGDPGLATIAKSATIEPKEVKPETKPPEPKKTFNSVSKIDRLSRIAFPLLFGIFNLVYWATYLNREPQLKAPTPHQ
T2 sequence (P47870 whole entry): T1 sequence (P47870 whole entry)
T2 sequence (P18507 whole entry): T1 sequence (P18507 whole entry)

[3] = target: T3, Gamma-aminobutyric acid receptor subunit alpha-5/beta-2/gamma-2 (Homo sapiens, UniProt P18507+P31644+P47870); assay: Displacement of [3H]flunitrazepam from human recombinant alpha5beta2gamma2 GABAA receptor expressed in HEK cell membrane by competitive radioligand binding assay; assay type: cell membranes
T3 sequence (P47870 whole entry): T1 sequence (P47870 whole entry)
T3 sequence (P18507 whole entry): T1 sequence (P18507 whole entry)
T3 sequence (P31644 whole entry): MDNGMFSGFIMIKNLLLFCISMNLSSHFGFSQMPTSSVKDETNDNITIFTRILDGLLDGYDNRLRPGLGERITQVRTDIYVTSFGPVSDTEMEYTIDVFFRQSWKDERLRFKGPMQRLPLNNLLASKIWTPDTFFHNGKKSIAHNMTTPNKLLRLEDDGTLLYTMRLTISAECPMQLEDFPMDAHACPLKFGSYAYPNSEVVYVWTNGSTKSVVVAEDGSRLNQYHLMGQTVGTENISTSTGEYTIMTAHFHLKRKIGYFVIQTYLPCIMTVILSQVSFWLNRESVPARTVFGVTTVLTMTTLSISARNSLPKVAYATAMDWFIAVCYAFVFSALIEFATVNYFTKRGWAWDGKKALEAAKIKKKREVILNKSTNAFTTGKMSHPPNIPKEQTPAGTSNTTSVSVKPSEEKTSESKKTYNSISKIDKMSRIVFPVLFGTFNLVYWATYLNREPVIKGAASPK

[4] = target: T4, GABA A receptor alpha-2/beta-2/gamma-2 (Homo sapiens, UniProt P18507+P47869+P47870); assay: Displacement of [3H]flunitrazepam from human recombinant alpha2beta2gamma2 GABAA receptor expressed in HEK cell membrane by competitive radioligand binding assay; assay type: cell membranes
T4 sequence (P47870 whole entry): T1 sequence (P47870 whole entry)
T4 sequence (P18507 whole entry): T1 sequence (P18507 whole entry)
T4 sequence (P47869 whole entry): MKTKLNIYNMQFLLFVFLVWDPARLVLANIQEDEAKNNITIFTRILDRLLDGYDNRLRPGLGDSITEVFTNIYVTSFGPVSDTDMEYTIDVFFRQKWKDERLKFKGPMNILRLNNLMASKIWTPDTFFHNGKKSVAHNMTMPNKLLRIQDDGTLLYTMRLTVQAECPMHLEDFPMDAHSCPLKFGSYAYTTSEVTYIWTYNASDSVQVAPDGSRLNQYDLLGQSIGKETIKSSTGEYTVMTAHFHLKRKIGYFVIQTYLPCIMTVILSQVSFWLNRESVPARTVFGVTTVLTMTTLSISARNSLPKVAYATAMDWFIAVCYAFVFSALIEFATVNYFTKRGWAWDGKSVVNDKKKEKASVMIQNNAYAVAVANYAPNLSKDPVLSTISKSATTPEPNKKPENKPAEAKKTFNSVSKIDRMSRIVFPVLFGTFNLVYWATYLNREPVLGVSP

[5] = species on record: Homo sapiens; assay: Selectivity ratio of Ki for human recombinant alpha1beta2gamma2 GABAA receptor expressed in HEK cell membrane to Ki for human recombinant alpha5beta2gamma2 GABAA receptor expressed in HEK cell membrane; assay type: cell-based

| Structure (SMILES) | Ki [1] [nM] | Ki [2] [nM] | Ki [3] [nM] | Ki [4] [nM] | Ratio Ki [5] |
| --- | --- | --- | --- | --- | --- |
| C#Cc1ccc2c(c1)C(c1ccccn1)=NCc1nnc(C)n1-2 | 104 | 144 | 45.6 | 81.3 |  |
| CN1C(=O)CN=C(c2ccccc2)c2cc(Br)ccc21 | 31 | 9.4 | 7.7 | 9.3 |  |
| O=C1CN=C(c2ccccc2)c2ccccc2N1 [RO-052921] | 350 | 288 | 140 | 233 | 2 |
| CN1C(=O)CN=C(c2ccccc2)c2ccccc21 | 318 | 81 | 98 | 138 |  |
| O=C1CN=C(c2ccccc2Cl)c2cc(Br)ccc2N1 [PHENAZEPAM] | 0.12 | 0.05 | 0.68 | 0.06 |  |
| C#Cc1ccc2c(c1)C(c1ccccc1)=N[C@@H](C)c1nnc(C)n1-2 | 20.9 | 107 | 8.1 | 50.1 | 13 |
| Cc1nnc2n1-c1ccc(Br)cc1C(c1ccccn1)=NC2 | 5.1 | 7.3 | 7.7 | 6.1 |  |
| Cc1nnc2n1-c1ccc(Cl)cc1C(c1ccccc1)=NC2 [ALPRAZOLAM] | 1.4 | 0.8 | 1.5 | 0.6 |  |
| C[C@@H]1N=C(c2ccccc2)c2cc(Br)ccc2NC1=O | 19.1 | 14.4 | 1.89 | 11 | 7 |
| C#Cc1ccc2c(c1)C(c1ccccc1)=NCc1nnc(C)n1-2 |  | 36.4 | 5.3 | 25.8 | 6 |
| C#Cc1ccc2c(c1)C(c1ccccc1)=NCC(=O)N2C | 47.4 | 76.3 | 6.8 | 42.1 | 11 |
| C#Cc1ccc2c(c1)C(c1ccccc1Cl)=NCc1nnc(C)n1-2 | 1.9 | 3.3 | 4.4 | 0.6 |  |
| C#Cc1ccc2c(c1)C(c1ccccc1F)=NCC(=O)N2C | 3.4 | 3.9 | 0.8 | 1.2 |  |
| C#Cc1ccc2c(c1)C(c1ccccc1Cl)=NCC(=O)N2C |  | 1.6 | 1.96 | 0.99 |  |
| C[C@H]1N=C(c2ccccc2)c2cc(Br)ccc2NC1=O | > 3000 | > 3000 | > 3000 | > 3000 |  |
| O=C1CN=C(c2ccccc2F)c2cc(Br)ccc2N1 | 0.28 | 0.26 | 0.26 | 0.15 |  |
| Cc1nnc2n1-c1ccc(Br)cc1C(c1ccccc1)=NC2 |  | 2.8 | 0.6 | 0.7 |  |
| Cc1nnc2n1-c1ccc(Br)cc1C(c1ccccc1Cl)=NC2 | 0.6 | 0.5 | 0.4 | 1 |  |
| C#Cc1ccc2c(c1)C(c1ccccc1F)=NCc1nnc(C)n1-2 |  | 6.3 | 0.6 | 2.1 |  |
